From patent publication US9006450B2 (Boehringer Ingelheim International GmbH, priority 2010, dated 2015)

The compounds below were run against T1, human ACC2 (Homo sapiens, UniProt O00763) (assay: ACC2 assay, spectrophotometric 384 well assay (NADH-linked, coupled lactate dehydrogenase/pyruvate kinase)). Conditions: ACC2 assay, hACC2 construct lacking 128 N-terminal amino acids, 25° C., 340 nm; read-out: IC50.
T1 construct: made in house; host or cells: insect cells (baculoviral expression system)
T1 sequence (O00763 129-2458 limits assumed): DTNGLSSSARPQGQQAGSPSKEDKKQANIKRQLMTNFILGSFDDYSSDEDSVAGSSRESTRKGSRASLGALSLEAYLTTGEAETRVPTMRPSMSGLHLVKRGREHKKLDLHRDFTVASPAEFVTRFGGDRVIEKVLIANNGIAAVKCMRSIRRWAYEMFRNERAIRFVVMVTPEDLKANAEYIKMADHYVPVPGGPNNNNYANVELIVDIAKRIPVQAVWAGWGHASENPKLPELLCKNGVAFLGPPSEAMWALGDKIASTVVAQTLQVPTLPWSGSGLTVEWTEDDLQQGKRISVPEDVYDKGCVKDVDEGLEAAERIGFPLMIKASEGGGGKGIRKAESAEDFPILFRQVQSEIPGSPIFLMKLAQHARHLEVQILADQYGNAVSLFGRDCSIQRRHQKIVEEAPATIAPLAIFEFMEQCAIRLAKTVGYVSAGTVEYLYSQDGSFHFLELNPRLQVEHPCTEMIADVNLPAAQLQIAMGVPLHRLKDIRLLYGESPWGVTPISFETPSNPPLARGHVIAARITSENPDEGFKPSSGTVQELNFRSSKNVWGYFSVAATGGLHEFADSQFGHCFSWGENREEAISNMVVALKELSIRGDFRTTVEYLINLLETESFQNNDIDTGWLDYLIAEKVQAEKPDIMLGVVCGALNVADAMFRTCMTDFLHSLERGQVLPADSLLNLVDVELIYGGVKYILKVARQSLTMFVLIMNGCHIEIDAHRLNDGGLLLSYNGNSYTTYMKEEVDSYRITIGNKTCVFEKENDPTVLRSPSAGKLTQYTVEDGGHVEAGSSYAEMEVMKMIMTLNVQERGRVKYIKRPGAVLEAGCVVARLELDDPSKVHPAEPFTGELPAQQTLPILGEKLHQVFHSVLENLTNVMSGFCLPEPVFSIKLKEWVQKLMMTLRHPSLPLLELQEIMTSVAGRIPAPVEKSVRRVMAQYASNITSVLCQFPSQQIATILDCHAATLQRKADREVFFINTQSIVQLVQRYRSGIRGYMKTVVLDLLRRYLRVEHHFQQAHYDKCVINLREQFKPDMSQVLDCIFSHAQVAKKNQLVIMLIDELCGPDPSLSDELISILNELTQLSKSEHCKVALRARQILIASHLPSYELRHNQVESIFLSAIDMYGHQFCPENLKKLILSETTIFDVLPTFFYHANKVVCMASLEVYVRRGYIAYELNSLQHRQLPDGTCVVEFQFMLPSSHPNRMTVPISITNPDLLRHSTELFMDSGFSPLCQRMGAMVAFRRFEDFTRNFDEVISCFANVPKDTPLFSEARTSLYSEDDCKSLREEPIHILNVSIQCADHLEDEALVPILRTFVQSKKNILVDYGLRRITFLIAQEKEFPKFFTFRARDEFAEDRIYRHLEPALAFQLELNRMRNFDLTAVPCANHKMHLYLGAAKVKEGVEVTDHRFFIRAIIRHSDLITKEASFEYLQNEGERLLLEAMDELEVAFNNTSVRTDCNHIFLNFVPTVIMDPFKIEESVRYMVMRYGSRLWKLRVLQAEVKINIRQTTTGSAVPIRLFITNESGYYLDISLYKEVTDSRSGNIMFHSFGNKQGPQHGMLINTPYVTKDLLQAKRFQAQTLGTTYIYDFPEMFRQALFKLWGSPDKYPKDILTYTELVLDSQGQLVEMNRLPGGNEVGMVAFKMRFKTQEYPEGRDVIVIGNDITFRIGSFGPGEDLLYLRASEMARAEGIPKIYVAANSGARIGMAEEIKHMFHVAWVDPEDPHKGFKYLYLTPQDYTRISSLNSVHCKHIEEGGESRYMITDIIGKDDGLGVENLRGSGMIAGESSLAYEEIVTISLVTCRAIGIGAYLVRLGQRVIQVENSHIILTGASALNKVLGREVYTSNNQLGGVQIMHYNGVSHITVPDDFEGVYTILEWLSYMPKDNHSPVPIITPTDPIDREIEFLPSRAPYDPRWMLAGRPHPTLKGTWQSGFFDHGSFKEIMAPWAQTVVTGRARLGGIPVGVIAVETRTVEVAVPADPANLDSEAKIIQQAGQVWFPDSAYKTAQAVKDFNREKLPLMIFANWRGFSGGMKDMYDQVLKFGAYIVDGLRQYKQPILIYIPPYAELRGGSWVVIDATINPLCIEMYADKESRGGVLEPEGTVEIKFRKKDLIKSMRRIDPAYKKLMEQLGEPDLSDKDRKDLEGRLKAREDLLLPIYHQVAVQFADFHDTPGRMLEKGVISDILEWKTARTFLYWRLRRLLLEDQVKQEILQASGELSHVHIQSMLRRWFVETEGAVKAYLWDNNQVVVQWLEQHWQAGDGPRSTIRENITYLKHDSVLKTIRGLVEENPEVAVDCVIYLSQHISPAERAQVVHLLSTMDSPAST
Format: biochemical
Method in brief: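 ADP output tracked via pyruvate kinase/lactate dehydrogenase NADH oxidation, slope at 340 nm over 15 min, 25° C, with 500 μM ATP and 200 μM each acetyl-CoA and NADH. Enzyme: insect-cell-expressed human ACC2, N-terminal 128 residues deleted; pH 7.5 Tris with citrate, KHCO3. IC50 from four-parameter regression versus vehicle and no-acetyl-CoA controls.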

IC50 [µM]	SMILES
0.99	CC(=O)N[C@@H](C)c1ccc(C2CCN(c3ccc(OCC4CCCCO4)cc3)CC2)cc1 (stereo partly shown) [Example 9.32]
0.12	C/C=C/CCOc1ccc(N2CCC(c3ccc([C@H](C)NC(C)=O)cc3)CC2)cc1 [Example 8.64]
7	CCSc1ccc(-c2cnc(N3CCC(c4ccc([C@H](C)NC(C)=O)cc4)CC3)nc2)cc1 [Example 10.64]
18.1	CNCCNC(=O)c1cnc(N2CCC(c3ccc([C@H](C)NC(C)=O)cc3)CC2)nc1 [Example 18.58]
1.3	CC#CCOc1nccc(N2CCC(c3ccc([C@H](C)NC(C)=O)cc3)CC2)n1 [Example 11.20]
0.4	CC(=O)N[C@@H](C)c1ccc(C2CCN(c3cccc(OCC(C)C)c3)CC2)cc1 [Example 8.4]
0.16	CC(=O)N[C@@H](C)c1ccc(C2CCN(c3ccc(OCC(C)C)c(Cl)c3)CC2)cc1 [Example 8.30]
6.5	CC(=O)N[C@@H](C)c1ccc(C2CCN(c3ncc(C(=O)NCc4cocn4)cn3)CC2)cc1 [Example 18.29]
0.44	CC(=O)N[C@@H](C)c1ccc(C2CCN(c3cc(-c4ccc5[nH]ccc5c4)ncn3)CC2)cc1 [Example 22.13]
1.3	CC(=O)N[C@@H](C)c1ccc(C2CCN(c3ncc(C4=CCOCC4)cn3)CC2)cc1 [Example 10.84]
0.37	CC(C)Oc1ncnc(N2CCC(c3ccc([C@H](C)NC(=O)C4CC4)cc3)CC2)c1F [Example 11.130]
0.04	CC(=O)N[C@@H](C)c1ccc(C2CCN(c3ccc(-c4ccc(F)cc4)cn3)CC2)cc1 [Example 10.310]
0.54	CC(=O)N[C@@H](C)c1ccc(C2CCN(c3ccnc(OC4Cc5ccccc5C4)c3)CC2)cc1 [Example 19.30]
3.2	CC(=O)N[C@@H](C)c1ccc(C2CCN(c3ccnc(NCCF)n3)CC2)cc1 [Example 11.102]
0.66	CC(=O)N[C@@H](C)c1ccc(C2CCN(c3ccnc(N4CCC4)n3)CC2)cc1 [Example 11.98]
0.44	CC(=O)N[C@@H](C)c1ccc(C2CCN(c3cc(N(C)CC4CC4)ncn3)CC2)cc1 [Example 11.91]
4	CC(=O)N[C@@H](C)c1ccc(C2CCN(c3ncc(C(=O)N4CCC4)cn3)CC2)cc1 [Example 18.76]
12.4	CC(=O)N[C@@H](C)c1ccc(C2CCN(c3ccc(OC(C)C)c(C#N)c3)CC2)cc1 [Example 8.24]

IC50 [µM]	SMILES
8.3	CC(=O)N[C@@H](C)c1ccc(C2CCN(c3cc(NC4CCOCC4)ncn3)CC2)cc1 [Example 11.74]
0.83	CCOc1ccc(N2CCC(c3ccc([C@H](C)NC(C)=O)cc3)CC2)cc1C [Example 8.15]
0.05	CC(=O)N[C@@H](C)c1ccc(C2CCN(c3ncc(-c4ccc(F)c(C#N)c4)cn3)CC2)cc1 [Example 10.50]
1.7	CC(=O)N[C@@H](C)c1ccc(C2CCN(c3cccc(C(=O)N4Cc5ccccc5C4)c3)CC2)cc1 [Example 29.2]
0.18	CC(C)Oc1cc(N2CCC(c3ccc([C@H](C)NC(=O)N(C)C)cc3)CC2)ncn1 [Example 20.3]
14.2	CCOc1ccc(N2CCC(c3ccc([C@H](C)NC(=O)Nc4nccs4)cc3)CC2)cc1 [Example 14.57]
0.03	CC(=O)N[C@@H](C)c1ccc(C2CCN(c3ncc(-c4ccccc4)cn3)CC2)cc1 [Example 10.43]
1.1	CC(=O)N[C@@H](C)c1ccc(C2CCN(c3ccc(NCC(C)C)cc3)CC2)cc1 [Example 24.3]
0.6	CC(=O)N[C@@H](C)c1ccc(C2CCN(c3ccnc(N(C)C)n3)CC2)cc1 [Example 11.104]
0.26	CC(=O)N[C@@H](C)c1ccc(C2CCN(c3ncc(-c4ccc(F)c(C)c4)cn3)CC2)cc1 [Example 10.49]
0.76	COc1ncccc1-c1cnc(N2CCC(c3ccc([C@H](C)NC(C)=O)cc3)CC2)nc1 [Example 10.58]
0.41	CC(=O)N[C@@H](C)c1ccc(C2CCN(c3ncc(-c4ccc5cc[nH]c5c4)cn3)CC2)cc1 [Example 10.114]
0.07	CC(=O)N[C@@H](C)c1ccc(C2CCN(c3ncc(-c4ccc(F)c(F)c4)cn3)CC2)cc1 [Example 10.52]
2.9	CC(=O)N[C@@H](C)c1ccc(C2CCN(c3cc(-c4ccc(C#N)s4)ncn3)CC2)cc1 [Example 22.8]
7.2	CC(=O)N[C@@H](C)c1ccc(C2CCN(c3ncc(C(=O)Nc4ccccn4)cn3)CC2)cc1 [Example 18.15]
0.29	CCOc1ccc(N2CCC(c3ccc([C@H](C)NC(C)=S)cc3)CC2)c(F)c1 [Example 38.2]
2.7	CC(=O)N[C@@H](C)c1ccc(C2CCN(c3ncc(-c4c(C)noc4C)cn3)CC2)cc1 [Example 10.20]
1.5	CCOc1ccc(N2CCC(c3ccc([C@H](C)NC(=O)Nc4cncnc4)cc3)CC2)cc1 [Example 14.59]

Continued, compound first:

SMILES	IC50 [µM]
CC(=O)N[C@@H](C)c1ccc(C2CCN(c3ncc(-c4ccccc4)c(Cl)n3)CC2)cc1 [Example 5.50, (S)—N-(1-{4-[1-(4-chloro-5-phenyl-pyrimidin-2-yl)-piperidin-4-yl]-phenyl}-ethyl)-acetamide]	0.09
COC(=O)N[C@@H](C)c1ccc(C2CCN(c3ccc(OC4CC4)cc3)CC2)cc1 [Example 1.113]	0.14
CC(=O)N[C@@H](C)c1ccc(C2CCN(c3ccc(OC(C)C)cc3F)CC2)cc1 [Example 1.74]	0.1
CC(=O)N[C@@H](C)c1ccc(C2CCN(c3ccc(O[C@@H]4CCOC4)cc3F)CC2)cc1 [Example 1.63]	1.3
C[C@H](NC(=O)N(C)C)c1ccc(C2CCN(c3ccc(OCC4CC4)cc3F)CC2)cc1 [Example 1.84]	0.18
CCCOc1ccc(N2CCC(c3ccc([C@H](C)NC(=O)OC)cc3)CC2)c(C#N)c1 [Example 1.131]	0.19
CCOc1ccc(N2CCC(c3ccc([C@H](C)NC(=O)OC)cc3)CC2)c(OCC)c1 [Example 1.137]	16
COCCOc1ccc(N2CCC(c3ccc([C@H](C)NC(C)=O)cc3)CC2)c(F)c1 [Example 1.97]	0.53
CC(=O)N[C@@H](C)c1ccc(C2CCN(c3ncc(F)cn3)CC2)cc1 [Example 4.40]	0.93
CCCCOc1ccc(N2CCC(c3ccc([C@H](C)NC(C)=O)cc3)CC2)c(C#N)c1 [Example 4.201]	0.06
COc1cc(OC2CC2)ccc1N1CCC(c2ccc([C@H](C)NC(=O)N(C)C)cc2)CC1 [Example 1.106]	0.17
C[C@H](NC(=O)C1CC1)c1ccc(C2CCN(c3ccc(OC4CCC4)cc3)CC2)cc1 [Example 1.9]	0.05
CC(=O)N[C@@H](C)c1ccc(C2CCN(c3ccc4cc(Cl)ccc4n3)CC2)cc1 [Example 4.10]	0.67
CC(=O)N[C@@H](C)c1ccc(C2CCN(c3ccc(C4CC4)nn3)CC2)cc1 [Example 1.174]	7.5
CCOc1ccc(N2CCC(c3ccc([C@H](C)NC(=O)Cc4cccnc4)cc3)CC2)cc1 [Example 6.32]	0.86
CCOc1cc(N2CCC(c3ccc([C@H](C)NC(C)=O)cc3)CC2)ccn1 [Example 1.191]	0.39
CC(=O)N[C@@H](C)c1ccc(C2CCN(c3ccc(F)c(C#N)c3)CC2)cc1 [Example 1.159]	2.7
CCOc1ccc(N2CCC(c3ccc([C@H](C)NC(=O)C4CC4)cc3)CC2)cc1 [Example 1.25]	0.15
CC(=O)N[C@@H](C)c1ccc(C2CCN(c3ccc(O)cc3F)CC2)cc1 [Example 1.65]	20
